How the values were obtained:
[1] = Plasma pharmacokinetics of SU5416 and metabolites in Phase I patients (HPLC UV); assay type: in vivo, human; conditions: plasma, patients
Description: Samples were taken prior to treatment infusion, 15 min into the infusion, at completion of the infusion and then at 5, 10, 20, 30, 45, 60, 120 and 240 min following the infusion. […] At the designated times, 4.0 ml of blood were collected into a lithium heparin tube, gently inverted and placed on ice to maintain the sample at 2–8°C. All samples were immediately centrifuged at 6000 r.p.m. at 4°C for 10 min, the supernatant divided between two 1.5 ml Nalgene cryovials and snap frozen in liquid nitrogen. Separated plasma samples were subsequently stored at −70°C until analysis.
Pharmacokinetic analysis was performed using a fully validated HPLC UV method ([Stopeck et al, 2002]). Plasma samples, standards (25–2000 ng ml^−1) and quality controls spiked with internal standards were extracted with acetonitrile. Following centrifugation, drying and reconstitution in 200 μl mobile phase, 20 μl were analysed by HPLC UV. Chromatography was carried out using a C18 analytical column, with a gradient mobile phase containing acetonitrile and 10 mM ammonium formate at pH 2.6. The flow rate was 0.8 ml min^−1 and the run-time 21 min. Detection was via UV absorption at a wavelength of 440 nm. The accuracy of the assay, reflected in relative error of measured concentration to theoretical (prepared) concentrations, was between 0.9 and 5.6% for all quality control samples.
Pharmacokinetic parameters were evaluated using WinNonLin Software®.

[2] = test system: receptor tyrosine kinases inhibited by the parent compound; set-up: method as in Mendel et al, 2000; conditions: ref Mendel et al, 2000; cited from earlier work

metabolite as proportion of the total [1]: 5.2%
SMILES: Cc1cc(CO)[nH]c1/C=C1\C(=O)Nc2ccccc21 [SU9838]
distribution and clearance of metabolite [1]: large volume of distribution and rapid clearance
inhibitory activity for the receptor tyrosine kinases inhibited by the parent compound [2]: Neither metabolite shows inhibitory activity
